Source: article PMC5805748 (2018)
One block for each molecule: values may come before it.

Experiments:
[1] = test system: 22Ag-D (DNA, G4) AGGGTTAGGGTTAGGGTTAGGG; assay: ITC; settings: K+ 40 mM; 20 mM Tris-HCl, pH 7.4; 500 μM ligand into 25 μM DNA
[2] = test system: ERSI-D (DNA, G4) GGGTAGGGGCAAAGGGGCTGGGG; assay: ITC; settings: K+ 40 mM; 20 mM Tris-HCl, pH 7.4; 500 μM ligand into 25 μM DNA
[3] = test system: VAV1-D (DNA, G4) GGGCAGGGAGGGAACTGGG; assay: ITC; settings: K+ 40 mM; 20 mM Tris-HCl, pH 7.4; 500 μM ligand into 25 μM DNA
[4] = test system: c-myc-D (DNA, G4) TGAGGGTGGGTAGGGTGGGTAA; assay: 1H NMR titration; settings: K+ 40 mM; phosphate buffer, pH 7.4, 25 °C; stacks on 5'-end G-tetrad
[5] = test system: c-myc-D (DNA, G4) TGAGGGTGGGTAGGGTGGGTAA; assay: UV-vis titration; settings: 2 μM ThT-E, 0 to 8 μM DNA; 23 nm red shift
[6] = test system: ADAM10-D (DNA, G4) GGGGGACGGGTAGGGGCGGGAGGTAGGGG; assay: fluorescence light-up; settings: K+ 40 mM; 20 mM Tris-HCl, pH 7.4; 2 μM ThT-E, 2 μM DNA; 159-fold
[7] = test system: 45Ag-D (DNA, G4) GGGTTAGGGTTAGGGTTAGGGTTAGGGTTAGGGTTAGGGTTAGGG; assay: fluorescence light-up; settings: K+ 40 mM; 20 mM Tris-HCl, pH 7.4; 2 μM ThT-E, 2 μM DNA; 146-fold
[8] = test system: 32 Kras-D (DNA, G4) AGGGCGGTGTGGGAAGAGGGAAGAGGGGGAGG; assay: fluorescence light-up; settings: K+ 40 mM; 20 mM Tris-HCl, pH 7.4; 2 μM ThT-E, 2 μM DNA; 125-fold
[9] = test system: B-raf-D (DNA, G4) GGGCGGGGAGGGGGAAGGGA; assay: fluorescence light-up; settings: K+ 40 mM; 20 mM Tris-HCl, pH 7.4; 2 μM ThT-E, 2 μM DNA
[10] = test system: Bulges-TB1 (DNA, G4) TTGTGGTGGGTGGGTGGGT; assay: fluorescence light-up; settings: K+ 40 mM; 20 mM Tris-HCl, pH 7.4; 2 μM ThT-E; 46.05-fold
[11] = test system: TBA-D (DNA, G4) GGTTGGTGTGGTTGG; assay: fluorescence light-up; settings: K+ 40 mM; 20 mM Tris-HCl, pH 7.4; 2 μM ThT-E, 2 μM DNA
[12] = test system: CT4-D (DNA, G4) GGGCTTTTGGGC; assay: fluorescence light-up; settings: K+ 40 mM; 20 mM Tris-HCl, pH 7.4; 2 μM ThT-E, 2 μM DNA
[13] = test system: 21CTA-D (DNA, G4) GGGCTAGGGCTAGGGCTAGGG; assay: native PAGE post-staining; settings: 20 μM ThT-E stain; band seen
[14] = test system: BCL-2Mid-D (DNA, G4) GGGCGCGGGAGGAATTGGGCGGG; assay: native PAGE post-staining; settings: 20 μM ThT-E stain; band seen
[15] = test system: Insulin a2-D (DNA, G4) ACAGGGGTGTGGGGACAGGGGTGTGGGG; assay: native PAGE post-staining; settings: 20 μM ThT-E stain; band seen
[16] = test system: 19AT-D (DNA, duplex) ACGTCGATTATAGACGAGC/GCTCGTCTATAATCGACGT; assay: native PAGE post-staining; settings: 20 μM ThT-E stain; no band; fluorescence rise below 3-fold
[17] = test system: dx12-D (DNA, duplex) GCGTGAGTTCGG/CCGAACTCACGC; assay: native PAGE post-staining; settings: 20 μM ThT-E stain; no band
[18] = test system: ssAf17-D (DNA, single strand) CTGAGTTGTATATATTCG; assay: native PAGE post-staining; settings: 20 μM ThT-E stain; no band; 2.77-fold fluorescence
[19] = test system: G-tripl-D (DNA, other) GGTTGGTGTGG; assay: native PAGE post-staining; settings: 20 μM ThT-E stain; no band
[20] = test system: 32 Kras-D (DNA, G4) AGGGCGGTGTGGGAAGAGGGAAGAGGGGGAGG; assay: CD titration; settings: no added salt; 20 mM Tris-HCl, pH 7.4; 0 to 30 μM ThT; induces parallel G4
[21] = test system: 35B1(Kras)-D (DNA, G4) AGGGCGGTGTGGGAAGAGGGAAGAGGGGGAGGCAG; assay: CD titration; settings: no added salt; 20 mM Tris-HCl, pH 7.4; 0 to 30 μM ThT; induces parallel G4

dissociation constant [1]: 17.78 µM
dissociation constant [2]: 56.81 µM
dissociation constant [3]: 74.73 µM
binding [4]: yes
binding [5]: yes
binding [6]: yes
binding [7]: yes
binding [8]: yes
binding [9]: yes
binding [10]: yes
binding [11]: weak
binding [12]: weak
binding [13]: yes
binding [14]: yes
binding [15]: yes
binding [16]: no
binding [17]: no
binding [18]: no
binding [19]: no
Structure (SMILES): CCN(CC)c1ccc(-c2sc3cc(C)ccc3[n+]2CC)cc1

dissociation constant [1]: 22.03 µM
dissociation constant [2]: 233.4 µM
dissociation constant [3]: 334.4 µM
binding [20]: yes
binding [21]: yes
Structure (SMILES): Cc1ccc2c(c1)sc(-c1ccc(N(C)C)cc1)[n+]2C
